{"source": "patent US20110059114A1", "about": "“Compositions and Methods for the Treatment of Radioresistant Glioma Stem Cells” (DUKE UNIVERSITY, priority 2009, published 2011)", "assay_type_in_all_cases": "cell-based, human", "key": {"[1]": {"tested_on": "Notch signaling", "test": "Notch-responsive luciferase reporter (RBP-Jκ reporter) assay", "conditions": "T4302 CD133+ cells; 2 μM DAPT or 0.5 μM L685,458 over night", "text": "(§1) FIG. 1 is a series of graphs illustrating that γ-secretase inhibitors reduce cell growth and clonogenic survival of glioma stem cells following radiation. (A) T4302 CD133+ glioma stem cells were transfected with a Notch-responsive luciferase reporter (RBP-JK reporter) pre-mixed with the vector directing constitutive expression of Renilla luciferase. Cells were left unirradiated or irradiated at 3 Gy, and were then collected to measure luciferase activities at time points as indicated. […] The relative mRNA levels of Hes2 were determined by quantitative real-time PCR at the time points as indicated. […] Total viable cell numbers were then determined by the CellTiter-Glo Luminescent Cell Viability Assay (Promega) for the following five days. […] Cells were then plated to form neurospheres, and the surviving fractions were determined as described in methods. […] (F,G) Neurosphere formation of T3359 and T4105 CD 133+ cells treated with GSIs alone, 3-Gy radiation alone, or the combination was determined as described in FIG. 1E. *: p<0.05 by Student's t-test; #: p<0.001 by one-way ANOVA.\nLuciferase assay. […] The luciferase activities were determined by the Dual-luciferase assay system (Promega)."}, "[2]": {"tested_on": "CD133+ glioma stem cells", "test": "Clonogenic survival assay (neurosphere formation)", "conditions": "T4302, 3-Gy radiation", "text": "as §1\nTo measure clonogenic survival, CD133+ glioma cells were plated in 24-well plates at 50 cells per well for the sham-irradiated groups, 100 cells per well for cells irradiated at 1 Gy, or 500 cells per well for cells irradiated at 2 or 3 Gy. […] Fourteen days after plating, neurospheres containing more than 50 cells were scored. […]"}, "[3]": {"tested_on": "T4302 CD133+ cells", "test": "Annexin V staining, flow cytometry", "method": "FIG. 2 is a series of graphs illustrating that γ-secretase inhibitors enhance radiation-induced cell death in glioma stem cells. (A) T4302 CD 133+ cells were pre-treated with DAPT or L685,458 for 4 hours and irradiated at 3 Gy. Percentage of dead cells was determined by trypan blue exclusion assay at 48 hours after radiation exposure. (B) T4302 CD 133+ cells were treated with GSIs ±radiation as indicated. Cells were then plated at 3000 cells per well in 96-well plates. Relative caspase 3/7 activities were determined by normalizing caspase activities to the corresponding cell titers. (C) T4302 CD 133+ cells were treated as described in FIG. 2A. 24 or 48 hours after radiation exposure, cells were labeled with FITC-conjugated Annexin V staining kit (BD Sciences) according to manufacturer's instructions and analyzed by flow cytometry. (D) T4302 CD 133+ cells were pre-treated with 2 μM DAPT for 4 hours, and were left unirradiated or irradiated at 1, 2 or 3 Gy. Relative caspase 3/7 activities were determined at 72 hours after radiation. (E) T4302 CD133+ cells were pre-treated with DAPT at indicated concentrations for 4 hours and irradiated at 3 Gy. Relative caspase activities were determined at 48 or 72 hours after radiation. *: p<0.01 by Student's t-test; #: p<0.01 by one-way ANOVA."}}, "data": [{"smiles": "CC(NC(=O)Cc1cc(F)cc(F)c1)C(=O)NC(C(=O)OC(C)(C)C)c1ccccc1", "note": "[DAPT, N-[N-(3,5-Difluorophenacetyl-L-alanyl)]-S-phenylglycine t-Butyl Ester]", "values": [{"measurement": "Notch signaling in glioma stem cells (Notch-responsive luciferase reporter)", "setting": "[1]", "result": "blocked"}, {"measurement": "clonogenic survival of irradiated NICD2-expressing cells", "setting": "[2]", "result": "did not significantly alter"}, {"measurement": "Annexin V-positive labeled cells", "setting": "[3]; 24 hours following 3 Gy radiation", "result": "not obvious"}, {"measurement": "Annexin V-positive labeled cells", "setting": "[3]; 48 hours following 3 Gy radiation", "result": "significantly increased"}, {"measurement": "percentage of Annexin V-positive cells", "setting": "[3]; NICD2 expression", "result": "failed to increase"}]}]}
